Reference: US20110060026A1, “Indoles Active on CRTH2 Receptor” (priority 2008, published 2011)

Molecular target: T1, CRTH2 receptor (Homo sapiens, UniProt Q9Y5Y4)
T1 construct: expressed in transfected cells; host or cells: HEK (human embryonic kidney) cells, membrane preparation
T1 sequence (Q9Y5Y4 1-395): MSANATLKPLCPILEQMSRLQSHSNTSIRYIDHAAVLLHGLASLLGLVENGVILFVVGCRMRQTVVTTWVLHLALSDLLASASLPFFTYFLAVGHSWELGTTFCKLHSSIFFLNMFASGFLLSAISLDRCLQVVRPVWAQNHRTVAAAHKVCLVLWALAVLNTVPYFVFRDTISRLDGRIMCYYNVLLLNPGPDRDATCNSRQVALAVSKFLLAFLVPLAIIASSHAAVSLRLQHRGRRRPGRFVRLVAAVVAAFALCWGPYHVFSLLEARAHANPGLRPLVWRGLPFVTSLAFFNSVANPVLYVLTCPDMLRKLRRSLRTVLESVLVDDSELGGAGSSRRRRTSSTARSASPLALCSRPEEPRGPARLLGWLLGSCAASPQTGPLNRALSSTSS
Test: CRTH2 radioligand binding assay ([3H]-PGD2 displacement, SPA)
Conditions: HEK cell membranes expressing the CRTH2 receptor, 1 nM [3H]-PGD2; Ki from IC50 by Cheng-Prusoff equation
Protocol: Compounds of the invention were tested using the following biological test method to determine their ability to displace PGD2 from the CRTH2 receptor.
CRTH2 Radioligand Binding Assay
The receptor binding assay is performed in a final volume of 200 μL binding buffer [10 mM BES (pH 7.4), 1 mM EDTA, 10 mM manganese chloride, 0.01% BSA] and 1 nM [^3H]-PGD2 (Amersham Biosciences UK Ltd). Ligands are added in assay buffer containing a constant amount of DMSO (1% by volume). Total binding is determined using 1% by volume of DMSO in assay buffer and non-specific binding is determined using 10 μM of unlabeled PGD2 (Sigma). Human embryonic kidney (HEK) cell membranes (3.5 μg) expressing the CRTH2 receptor are incubated with 1.5 mg wheatgerm agglutinin SPA beads and 1 nM [^3H]-PGD2 (Amersham Biosciences UK Ltd) and the mixture incubated for 3 hours at room temperature. Bound [^3H]-PGD2 is detected using a Microbeta TRILUX liquid scintillation counter (Perkin Elmer). Compound IC50 value is determined using a 6-point dose response curve in duplicate with a semi-log compound dilution series. IC50 calculations are performed using Excel and XLf it (Microsoft), and this value is used to determine a Ki value for the test compound using the Cheng-Prusoff equation.

With `Cc1c(CC(=O)O)c2cc(F)ccc2n1Cc1ccccc1S(=O)(=O)c1ccc(F)cc1` [Example 1, {5-fluoro-1-[2-(4-fluorobenzenesulfonyl)benzyl]-2-methyl-1H-indol-3-yl}acetic acid] the Ki was 66 nM.
